Assay results: patent US20060069132A1, “Azolecarboxamide herbicides” (priority 2004, published 2006)

Experiments:
kochia = assay: Test C pre-/postemergence herbicide test; assay type: in vivo, Kochia scoparia; conditions: preemergence
Outline: (§1)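 Pre- and postemergence application, solvent/surfactant formulation; post at 1- to 4-leaf stage (2–18 cm). Greenhouse 12–14 d. Visual rating vs controls, 0 = no effect, 100 = complete control.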

bermudagrass = assay: Test C pre-/postemergence herbicide test; assay type: in vivo, Cynodon dactylon; conditions: for Plant response rating, Bermudagrass: preemergence
Outline: as §1

corn = assay: Test C pre-/postemergence herbicide test; assay type: in vivo, Zea mays; conditions: preemergence
Outline: as §1

velvetleaf = assay: Test A pre-/postemergence herbicide test; assay type: in vivo, Abutilon theophrasti
Outline: (§2)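 Visual injury rating on a 0–100 scale (0 no effect, 100 complete control) versus untreated controls, about ten days after treatment in greenhouse. Pre: directed soil spray onto seeded sandy loam. Post: spray to runoff on plants 2–10 cm tall at one- to two-leaf stage.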

barnyardgrass = assay: Test A pre-/postemergence herbicide test; assay type: in vivo, Echinochloa crus-galli
Outline: as §2

large crabgrass [1] = assay: Test C pre-/postemergence herbicide test; assay type: in vivo, Digitaria sanguinalis; conditions: preemergence
Outline: as §1

goosegrass = assay: Test C pre-/postemergence herbicide test; assay type: in vivo, Eleusine indica; conditions: preemergence
Outline: as §1

cocklebur = assay: Test C pre-/postemergence herbicide test; assay type: in vivo, Xanthium strumarium; conditions: for Plant response rating, Cocklebur: preemergence
Outline: as §1

[2] = system: common (oilseed) sunflower; assay: Test C pre-/postemergence herbicide test; assay type: in vivo, Helianthus annuus; conditions: preemergence
Outline: as §1

Surinam grass = assay: Test C pre-/postemergence herbicide test; assay type: in vivo, Urochloa decumbens; conditions: preemergence
Outline: as §1

large crabgrass [3] = assay: Test A pre-/postemergence herbicide test; assay type: in vivo, Digitaria sanguinalis
Outline: as §2

giant foxtail = assay: Test C pre-/postemergence herbicide test; assay type: in vivo, Setaria faberi; conditions: preemergence
Outline: as §1

[4] = 125 g ai/ha, scale 0 (no effect) to 100 (complete control), visual, 12 to 14 days
[5] = 500 g ai/ha, scale 0 to 100 (0 no effect, 100 complete control), visual, 12 to 14 days
[6] = Preemergence, 500 g ai/ha, scale 0 to 100, 0 no effect, 100 complete control
[7] = Postemergence, 500 g ai/ha, 0 to 100 scale, 0 no effect, 100 complete control
[8] = Postemergence, 2000 g ai/ha, 0 to 100 scale, 0 no effect, 100 complete control
[9] = Preemergence, 2000 g ai/ha, visual rating, 0 to 100 scale (0 no effect, 100 complete control)
[10] = preemergence, 500 g ai/ha, visual injury, 0 to 100 scale (0 no effect, 100 complete control)

CCc1nc(C(C)(C)C)sc1C(=O)Nc1cccc(C(=O)NCC2CC2)n1 [Compound 215]
85: Plant response rating, Bermudagrass (bermudagrass; 250 g ai/ha, scale 0-100) | Plant response rating, Crabgrass, Large (large crabgrass [1]; 250 g ai/ha, scale 0-100)
30: Velvetleaf plant response rating (velvetleaf; [7]) | Plant response rating, Velvetleaf (velvetleaf; [8]) | Velvetleaf plant response rating (velvetleaf; [9]) | Plant response rating, Surinam Grass (Surinam grass; 250 g ai/ha, scale 0-100) | Plant response rating, Crabgrass, Large (large crabgrass [3]; [8]) | Crabgrass, Large plant response rating (large crabgrass [3]; [10])
15: Velvetleaf plant response rating (velvetleaf; [10]) | Barnyardgrass plant response rating (barnyardgrass; [10])
55: Crabgrass, Large plant response rating (large crabgrass [3]; [9])
80: Plant response rating, Goosegrass (goosegrass; 250 g ai/ha, scale 0-100)
25: Plant response rating, Barnyardgrass (barnyardgrass; [8])
50: Plant response rating, Corn (corn; [5]) | Plant response rating, Surinam Grass (Surinam grass; [5]) | Plant response rating, Foxtail, Giant (giant foxtail; [4])
20: Plant response rating, Corn (corn; [4]) | Plant response rating, Corn (corn; 250 g ai/ha, scale 0-100) | Crabgrass, Large plant response rating (large crabgrass [3]; [7])
100: Plant response rating, Kochia (kochia; 62 g ai/ha, scale 0 to 100) | Plant response rating, Kochia (kochia; [4]) | Plant response rating, Kochia (kochia; 250 g ai/ha, scale 0-100) | Plant response rating, Kochia (kochia; [5]) | Bermudagrass plant response rating (bermudagrass; [6]) | Plant response rating, Crabgrass, Large (large crabgrass [1]; [5]) | Plant response rating, Goosegrass (goosegrass; [5]) | Plant response rating, Foxtail, Giant (giant foxtail; [5])
0: Plant response rating, Corn (corn; 62 g ai/ha, scale 0 to 100) | Barnyardgrass plant response rating (barnyardgrass; [7]) | Plant response rating, Crabgrass, Large (large crabgrass [1]; 62 g ai/ha, scale 0 to 100) | Plant response rating, Goosegrass (goosegrass; 62 g ai/ha, scale 0 to 100) | Plant response rating, Cocklebur (cocklebur; 62 g ai/ha, scale 0 to 100) | Plant response rating, Cocklebur (cocklebur; [4]) | Plant response rating, Cocklebur (cocklebur; 250 g ai/ha, scale 0-100) | Plant response rating, Sunflower ([2]; 62 g ai/ha, scale 0 to 100) | Plant response rating, Sunflower ([2]; 250 g ai/ha, scale 0-100) | Plant response rating, Sunflower [2, 5] | Plant response rating, Surinam Grass (Surinam grass; 62 g ai/ha, scale 0 to 100) | Plant response rating, Foxtail, Giant (giant foxtail; 62 g ai/ha, scale 0 to 100)
40: Plant response rating, Bermudagrass (bermudagrass; 62 g ai/ha, scale 0 to 100, 0 no effect, 100 complete control) | Plant response rating, Goosegrass (goosegrass; [4])
60: Cocklebur plant response rating (cocklebur; [6])
35: Barnyardgrass plant response rating (barnyardgrass; [9])
70: Plant response rating, Bermudagrass (bermudagrass; [4]) | Plant response rating, Crabgrass, Large (large crabgrass [1]; [4]) | Plant response rating, Foxtail, Giant (giant foxtail; 250 g ai/ha, scale 0-100)
